Results on eight compounds are retold here after PubChem BioAssay (NCI).

Some test systems named below: SN12C renal; IGROV1 ovarian; MDA-MB-231 breast; OVCAR-8 ovarian; UO-31 renal; SF-539 CNS; SNB-19 CNS; SF-295 CNS; SNB-75 CNS; RPMI-8226 leukemia.
What all share (assay): inhibition of tumour cell growth, NCI panel, 48 h

Molecules are shown by their SMILES.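 Five concentrations, 48 hours, 96-well plates. The concentration for 50% growth inhibition is given as GI50. TGI is the concentration that stops growth completely.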

Consider `CCCCCCCCCc1ccc(OCCOCCOCCOCCOCCOCCOCCOCCOCCO)cc1`, for which the GI50 in the test with SN12C renal was 0.61 µM; with IGROV1 ovarian it was 0.999 µM; in the test with MDA-MB-231 breast it was 0.668 µM; with OVCAR-8 ovarian, 0.231 µM; in the test on UO-31 renal, 0.733 µM; in the test with SF-539 CNS it was 0.949 µM. Moreover, the GI50 was 0.617 µM with SNB-19 CNS, 0.304 µM with SF-295 CNS, 0.881 µM in the test with SNB-75 CNS and 0.0368 µM in the test on RPMI-8226 leukemia. Further, the TGI came out at 1.59 µM with SN12C renal; 4.32 µM in the test on IGROV1 ovarian; 1.51 µM in the test on MDA-MB-231 breast; 2.71 µM in the test on OVCAR-8 ovarian; 4.82 µM in the test on UO-31 renal; 2.67 µM in the test with SF-539 CNS. Also, the TGI came out at 2.73 µM in the test with SNB-19 CNS, 1.96 µM in the test with SF-295 CNS, 2.48 µM in the test with SNB-75 CNS and 1.76 µM with RPMI-8226 leukemia.

As for `C=C1C(=O)O[C@H]2[C@H]1CC/C(COC(=O)N[C@H]1C[C@H](O[C@H]3C[C@](O)(C(=O)CO)Cc4c(O)c5c(c(O)c43)C(=O)c3c(OC)cccc3C5=O)O[C@@H](C)[C@H]1O)=C\CC[C@@]1(C)O[C@@H]21`, the GI50 was 5.07 µM in the test with SN12C renal; 5.77 µM in the test on IGROV1 ovarian; 3.21 µM in the test on MDA-MB-231 breast; 6.99 µM in the test with OVCAR-8 ovarian; greater than 50 µM in the test on UO-31 renal; 2.37 µM in the test on SF-539 CNS. Besides, the GI50 with SNB-19 CNS was 13.2 µM; with SF-295 CNS, 45.3 µM; in the test on SNB-75 CNS it was 6.97 µM; in the test with RPMI-8226 leukemia, 1.33 µM. Besides, the TGI was 14.4 µM in the test on SN12C renal; 19 µM in the test on IGROV1 ovarian; 10.7 µM in the test on MDA-MB-231 breast; 18 µM in the test on OVCAR-8 ovarian; greater than 50 µM in the test with UO-31 renal; 8.43 µM with SF-539 CNS. Further, the TGI in the test on SNB-19 CNS was greater than 50 µM; with SF-295 CNS, greater than 50 µM; in the test on SNB-75 CNS, 24.1 µM; in the test on RPMI-8226 leukemia, 3.97 µM.

Turning to `O=C1c2cccnc2-c2nc(-c3cccnc3)cc3c2c1nc1ccccc13`, the GI50 in the test with SN12C renal was 2.18 µM; with IGROV1 ovarian it was 3.12 µM; in the test with MDA-MB-231 breast, 4.43 µM; with OVCAR-8 ovarian it was 1.31 µM; with UO-31 renal it was 15.2 µM; in the test on SF-539 CNS it was 1.72 µM. Also, the GI50 with SNB-19 CNS was 5.59 µM; in the test on SF-295 CNS, 1.92 µM; in the test with SNB-75 CNS it was 2.34 µM; in the test on RPMI-8226 leukemia, 2.59 µM. Besides, the TGI in the test on SN12C renal is 5.02 µM; in the test with IGROV1 ovarian, 28.4 µM; with MDA-MB-231 breast, greater than 72 µM; in the test with OVCAR-8 ovarian it was 3.96 µM; with UO-31 renal it was 37.3 µM; in the test on SF-539 CNS it was 3.6 µM. For the same compound, the TGI with SNB-19 CNS is 21 µM; in the test with SF-295 CNS, 3.71 µM; in the test with SNB-75 CNS, 6.91 µM; in the test with RPMI-8226 leukemia, greater than 100 µM.

For the compound `Nc1nc(N)c2cc(Sc3ccc4ccccc4c3)ccc2n1`, the TGI in the test on SN12C renal is 8.93 µM; in the test with IGROV1 ovarian it was 14.1 µM; in the test on MDA-MB-231 breast, 5.28 µM; in the test on OVCAR-8 ovarian it was 2.84 µM; in the test with UO-31 renal, 7.69 µM; in the test with SF-539 CNS, 5.04 µM. Further, the TGI was determined as 7.61 µM with SNB-19 CNS, 4.91 µM in the test on SF-295 CNS, 5.89 µM in the test on SNB-75 CNS and 4.72 µM with RPMI-8226 leukemia. For the same compound, in the test with IGROV1 ovarian, the GI50 is 0.817 µM.

Consider `O=[N+]([O-])c1cc([As](Br)c2ccc(O)c([N+](=O)[O-])c2)ccc1O`, for which the TGI in the test on SN12C renal was determined as 3.3 µM; in the test on IGROV1 ovarian, 3.6 µM; with MDA-MB-231 breast it was 3.11 µM; in the test with OVCAR-8 ovarian it was 3.21 µM; in the test with UO-31 renal it was 3.23 µM; in the test on SF-539 CNS it was 3.93 µM. Moreover, the TGI in the test with SNB-19 CNS stood at 3.72 µM; in the test on SF-295 CNS, 3.61 µM; in the test with SNB-75 CNS, 3.62 µM; in the test with RPMI-8226 leukemia, 1.28 µM.

As to `c1ccc(-c2nc3n(c2-c2ccc4c(c2)OCO4)CCC3)nc1`, the GI50 with SN12C renal was 7.56 µM; in the test with IGROV1 ovarian, 7.37 µM; in the test with MDA-MB-231 breast it was 4.25 µM; in the test with OVCAR-8 ovarian it was 6.34 µM; with UO-31 renal, 0.611 µM; in the test on SF-539 CNS it was 6.38 µM. Moreover, the GI50 in the test with SNB-19 CNS was 8.74 µM; in the test on SF-295 CNS it was 4.8 µM; with SNB-75 CNS, 6.42 µM; with RPMI-8226 leukemia it was 9.88 µM. For the same compound, the TGI with SN12C renal was greater than 25 µM; in the test with IGROV1 ovarian it was greater than 23.2 µM; in the test with MDA-MB-231 breast, greater than 25 µM; in the test on OVCAR-8 ovarian, greater than 25 µM; in the test on UO-31 renal, 8.58 µM; in the test with SF-539 CNS, 21.6 µM. The TGI was greater than 25 µM in the test on SNB-19 CNS, 24.5 µM in the test on SF-295 CNS, greater than 25 µM with SNB-75 CNS and greater than 25 µM with RPMI-8226 leukemia.

On to `Clc1ccc(/C=C/c2ccc3ccccc3n2)cc1`, for which the GI50 in the test on SN12C renal was 2.06 µM; in the test on IGROV1 ovarian, 0.716 µM; in the test with MDA-MB-231 breast, 2.3 µM; in the test with OVCAR-8 ovarian, 1.06 µM; in the test on UO-31 renal, 4.68 µM; with SF-539 CNS, 0.428 µM. Further, the GI50 in the test with SNB-19 CNS was 1.56 µM; with SF-295 CNS, 1.2 µM; in the test with SNB-75 CNS, 2.63 µM; with RPMI-8226 leukemia, 0.482 µM. The TGI in the test with SN12C renal was greater than 100 µM; with IGROV1 ovarian, greater than 80.8 µM; in the test with MDA-MB-231 breast it was greater than 100 µM; in the test with OVCAR-8 ovarian, greater than 100 µM; in the test with UO-31 renal it was greater than 100 µM; in the test with SF-539 CNS, 13.8 µM. In addition, the TGI was greater than 100 µM in the test on SNB-19 CNS, 6.8 µM in the test on SF-295 CNS, greater than 67.1 µM in the test with SNB-75 CNS and 18.6 µM with RPMI-8226 leukemia.

With `O=C(NN1C(=O)CSC1c1cccc(Cl)c1)C(O)c1ccccc1` (stereo unspecified), the GI50 is greater than 100 µM in the test with SN12C renal; greater than 100 µM with IGROV1 ovarian; 87.7 µM in the test with MDA-MB-231 breast; 83.5 µM with OVCAR-8 ovarian; 75.5 µM in the test on UO-31 renal; greater than 100 µM with SF-539 CNS. The GI50 in the test with SNB-19 CNS was greater than 100 µM; in the test on SF-295 CNS, 22.4 µM; with SNB-75 CNS, 65 µM; in the test with RPMI-8226 leukemia, 23.1 µM. Also, the TGI in the test on SN12C renal, in the test with IGROV1 ovarian, with MDA-MB-231 breast, in the test with OVCAR-8 ovarian, with UO-31 renal and in the test with SF-539 CNS was greater than 100 µM in each case. Further, the TGI with SNB-19 CNS, in the test on SF-295 CNS, in the test with SNB-75 CNS and in the test on RPMI-8226 leukemia was greater than 100 µM throughout.
